Data on 23 compounds can be found in ChEMBL document CHEMBL4706545, “Antiproliferative effect of mitochondria-targeting allobetulin 1,2,3-triazolium salt derivatives and their mechanism of inducing apoptosis of cancer cells” (Eur J Med Chem, 2020).

The structures appear in SMILES notation. Where only a bound is given, the exact number is not on record here.

The test system of one test is L02. The test can be described thus: Cytotoxicity against human HL7702 cells assessed as reduction in cell viability incubated for 48 hrs by MTT assay. The class given is ADME, cell-based. The conditions noted are these: L02, 48 h. For orientation: Tetrazolium assays rely on reduction of a dye to a coloured formazan, in cell work by metabolically active cells.
The next test has as its system ECa-109 cell line. The test can be described thus: Cytotoxicity against human ECa-109 cells assessed as reduction in cell viability incubated for 48 hrs by MTT assay. In kind it is functional, cell-based. The conditions noted are these: ECa-109, 48 h.
Test [1] in a line: Selectivity index, ratio of IC50 for cytotoxicity against human HL7702 cells to IC50 for cytotoxicity against human SGC-7901 cells.
The test system of a further test is SGC-7901. The test can be described thus: Cytotoxicity against human SGC-7901 cells assessed as reduction in cell viability incubated for 48 hrs by MTT assay. The conditions noted are these: SGC-7901, 48 h. In kind it is functional, cell-based.
For a further test, the system named is HeLa. The experiment in a line: Cytotoxicity against human HeLa cells assessed as reduction in cell viability incubated for 48 hrs by MTT assay. The class given is functional, cell-based.
Test [2] can be described thus: Selectivity index, ratio of IC50 for cytotoxicity against human HL7702 cells to IC50 for cytotoxicity against human ECa-109 cells.
Another test deals with HepG2. The test can be described thus: Cytotoxicity against human HepG2 cells assessed as reduction in cell viability incubated for 48 hrs by MTT assay. In kind it is functional, cell-based. The conditions noted are these: HepG2, 48 h.

Regarding `COc1cccc2c1C(=O)c1c(O)c3c(c(O)c1C2=O)C[C@@](O)(C(=O)CO)C[C@@H]3O[C@H]1C[C@H](N)[C@H](O)[C@H](C)O1` [DOXORUBICIN], the half-maximal inhibitory concentration (IC50) (commonly the point on the concentration scale where inhibition reaches its midpoint) was determined as 0.94 µM with L02, 2.06 µM in the test with ECa-109 cell line, 1.53 µM in the test on SGC-7901 and 1.07 µM in the test on HeLa. Besides, the “Ratio IC50” value came out at 0.61 in test [1] and 0.46 in test [2].

On to `COc1ccccc1CCn1nnc2c1C(C)(C)[C@@H]1CC[C@]3(C)[C@H](CC[C@@H]4[C@H]5[C@H]6OC[C@@]5(CCC6(C)C)CC[C@]43C)[C@@]1(C)C2`, for which the IC50 is 31.9 µM with L02; 34.9 µM in the test on ECa-109 cell line; 38.6 µM in the test on SGC-7901; 32.8 µM in the test on HepG2; 33.9 µM in the test on HeLa.

For `Cc1ccc(Cn2nnc3c2C(C)(C)[C@@H]2CC[C@]4(C)[C@H](CC[C@@H]5[C@H]6[C@H]7OC[C@@]6(CCC7(C)C)CC[C@]54C)[C@@]2(C)C3)cc1`, the IC50 in the test on L02 amounted to 22.7 µM; in the test with ECa-109 cell line, 34.8 µM; in the test on SGC-7901 it was 20.3 µM; in the test on HepG2, 26.6 µM; with HeLa, 32.3 µM.

For `CC1(C)CC[C@]23CC[C@]4(C)[C@H](CC[C@@H]5[C@@]6(C)Cc7nnn(Cc8ccccc8Cl)c7C(C)(C)[C@@H]6CC[C@]54C)[C@H]2[C@H]1OC3`, the IC50 was found to be 40.5 µM in the test on L02; 58.9 µM in the test on ECa-109 cell line; 49.9 µM with SGC-7901; 56.1 µM in the test with HepG2; 41.3 µM with HeLa.

Regarding `CCCCCCCCn1nnc2c1C(C)(C)[C@@H]1CC[C@]3(C)[C@H](CC[C@@H]4[C@H]5[C@H]6OC[C@@]5(CCC6(C)C)CC[C@]43C)[C@@]1(C)C2`, the IC50 with L02, in the test with ECa-109 cell line, in the test on SGC-7901, in the test on HepG2 and with HeLa was greater than 80 µM each time.

As for `CC1(C)CC[C@]23CC[C@]4(C)[C@H](CC[C@@H]5[C@@]6(C)CC[C@H](O)C(C)(C)[C@@H]6CC[C@]54C)[C@H]2[C@H]1OC3` [ALLOBETULIN], the IC50 in the test on L02 amounted to 42.7 µM; in the test on ECa-109 cell line it was 47.6 µM; with SGC-7901, 62.4 µM; with HepG2 it was 55.9 µM; in the test with HeLa it was 45.6 µM.

Regarding `C[n+]1nn(Cc2cccc(Cl)c2)c2c1C[C@]1(C)[C@H]3CC[C@@H]4[C@H]5[C@H]6OC[C@@]5(CCC6(C)C)CC[C@@]4(C)[C@]3(C)CC[C@H]1C2(C)C`, the IC50 was found to be 1.89 µM in the test on L02; 3.01 µM in the test on ECa-109 cell line; 2.41 µM with SGC-7901; 2.67 µM with HepG2; 2.07 µM in the test on HeLa.

Regarding `CC1(C)CC[C@]23CC[C@]4(C)[C@H](CC[C@@H]5[C@@]6(C)Cc7nnn(Cc8ccc(Cl)c(Cl)c8)c7C(C)(C)[C@@H]6CC[C@]54C)[C@H]2[C@H]1OC3`, the IC50 in the test with L02 worked out at 35.5 µM; in the test on ECa-109 cell line, 43.6 µM; in the test on SGC-7901 it was 44.5 µM; in the test on HepG2, 53.9 µM; in the test on HeLa, 32.6 µM.

For `C[n+]1nn(Cc2ccc(Cl)c(Cl)c2)c2c1C[C@]1(C)[C@H]3CC[C@@H]4[C@H]5[C@H]6OC[C@@]5(CCC6(C)C)CC[C@@]4(C)[C@]3(C)CC[C@H]1C2(C)C`, the IC50 was 2.29 µM in the test on L02; 3.03 µM in the test on ECa-109 cell line; 2.99 µM in the test on SGC-7901; 2.96 µM with HepG2; 2.83 µM in the test with HeLa.

On to `COc1ccccc1Cn1nnc2c1C(C)(C)[C@@H]1CC[C@]3(C)[C@H](CC[C@@H]4[C@H]5[C@H]6OC[C@@]5(CCC6(C)C)CC[C@]43C)[C@@]1(C)C2`, for which the IC50 in the test on L02 was 38.4 µM; in the test with ECa-109 cell line, 57.9 µM; in the test with SGC-7901 it was 53 µM; with HepG2 it was 46.7 µM; in the test on HeLa, 41.9 µM.

`CC1(C)CC[C@]23CC[C@]4(C)[C@H](CC[C@@H]5[C@@]6(C)Cc7nnn(CC(c8ccccc8)c8ccccc8)c7C(C)(C)[C@@H]6CC[C@]54C)[C@H]2[C@H]1OC3`: the IC50 in the test on L02 is 40.7 µM; in the test on ECa-109 cell line it was 48.5 µM; with SGC-7901, 47.9 µM; with HepG2 it was 53.9 µM; in the test with HeLa it was 44.1 µM.

On to `CC1(C)CC[C@]23CC[C@]4(C)[C@H](CC[C@@H]5[C@@]6(C)Cc7nnn(Cc8ccc(Cl)cc8)c7C(C)(C)[C@@H]6CC[C@]54C)[C@H]2[C@H]1OC3`, for which the IC50 in the test with L02 amounted to 44.9 µM; with ECa-109 cell line, 64.2 µM; in the test on SGC-7901, 61.4 µM; in the test on HepG2 it was 66 µM; in the test with HeLa it was 51.3 µM.

In the case of `CCCCCCn1nnc2c1C(C)(C)[C@@H]1CC[C@]3(C)[C@H](CC[C@@H]4[C@H]5[C@H]6OC[C@@]5(CCC6(C)C)CC[C@]43C)[C@@]1(C)C2`, the IC50 is 51.9 µM in the test with L02; 37.4 µM with ECa-109 cell line; 40.9 µM in the test with SGC-7901; greater than 80 µM with HepG2; greater than 80 µM with HeLa.

On to `CC1(C)CC[C@]23CC[C@]4(C)[C@H](CC[C@@H]5[C@@]6(C)Cc7nnn(Cc8ccc(F)cc8F)c7C(C)(C)[C@@H]6CC[C@]54C)[C@H]2[C@H]1OC3`, for which the IC50 in the test on L02 is 7.47 µM; with ECa-109 cell line, 10.9 µM; in the test with SGC-7901 it was 9.02 µM; with HepG2, 6.56 µM; in the test with HeLa, 10.2 µM.

Regarding `CCCCn1nnc2c1C(C)(C)[C@@H]1CC[C@]3(C)[C@H](CC[C@@H]4[C@H]5[C@H]6OC[C@@]5(CCC6(C)C)CC[C@]43C)[C@@]1(C)C2`, the IC50 in the test with L02 was found to be 7.86 µM; in the test on ECa-109 cell line, 10.5 µM; in the test on SGC-7901, 6.61 µM; in the test with HepG2 it was 10.7 µM; with HeLa it was 6.26 µM.

Turning to `CC1(C)CC[C@]23CC[C@]4(C)[C@H](CC[C@@H]5[C@@]6(C)Cc7nnn(Cc8cccc(Cl)c8)c7C(C)(C)[C@@H]6CC[C@]54C)[C@H]2[C@H]1OC3`, the IC50 with L02 was determined as 26.3 µM; with ECa-109 cell line, 36.5 µM; in the test on SGC-7901 it was 31.5 µM; in the test on HepG2, 30.7 µM; in the test with HeLa, 34.4 µM.

For the compound `C[n+]1nn(Cc2ccccc2F)c2c1C[C@]1(C)[C@H]3CC[C@@H]4[C@H]5[C@H]6OC[C@@]5(CCC6(C)C)CC[C@@]4(C)[C@]3(C)CC[C@H]1C2(C)C`, the half-inhibitory concentration (IC50) in the test on L02 stood at 1.68 µM; in the test with ECa-109 cell line, 3.08 µM; in the test with SGC-7901, 2.56 µM; in the test with HepG2, 2.99 µM; in the test with HeLa, 2.42 µM.

Regarding `CC1(C)CC[C@]23CC[C@]4(C)[C@H](CC[C@@H]5[C@@]6(C)Cc7nnn(Cc8ccc(F)cc8)c7C(C)(C)[C@@H]6CC[C@]54C)[C@H]2[C@H]1OC3`, the IC50 was 42 µM in the test with L02; 69 µM in the test with ECa-109 cell line; greater than 80 µM with SGC-7901; 47.7 µM with HepG2; greater than 80 µM in the test with HeLa.

As to `C[n+]1nn(Cc2cccc(F)c2)c2c1C[C@]1(C)[C@H]3CC[C@@H]4[C@H]5[C@H]6OC[C@@]5(CCC6(C)C)CC[C@@]4(C)[C@]3(C)CC[C@H]1C2(C)C`, the IC50 in the test with L02 stood at 1.41 µM; in the test on ECa-109 cell line it was 3 µM; with SGC-7901, 3.05 µM; with HepG2 it was 2.24 µM; with HeLa, 2.78 µM.

As for `C[n+]1nn(Cc2ccc(Cl)cc2)c2c1C[C@]1(C)[C@H]3CC[C@@H]4[C@H]5[C@H]6OC[C@@]5(CCC6(C)C)CC[C@@]4(C)[C@]3(C)CC[C@H]1C2(C)C`, the IC50 in the test on L02 stood at 1.62 µM; with ECa-109 cell line it was 2.16 µM; in the test with SGC-7901, 2.68 µM; with HepG2, 1.73 µM; in the test with HeLa, 2.45 µM.

`COc1ccc(Cn2n[n+](C)c3c2C(C)(C)[C@@H]2CC[C@]4(C)[C@H](CC[C@@H]5[C@H]6[C@H]7OC[C@@]6(CCC7(C)C)CC[C@]54C)[C@@]2(C)C3)cc1`: the IC50 in the test with L02 came to 2.24 µM; in the test with ECa-109 cell line, 2.78 µM; in the test with SGC-7901, 2.01 µM; in the test with HepG2, 2.86 µM; in the test with HeLa, 2.48 µM.

Take `C[n+]1nn(Cc2ccccc2Cl)c2c1C[C@]1(C)[C@H]3CC[C@@H]4[C@H]5[C@H]6OC[C@@]5(CCC6(C)C)CC[C@@]4(C)[C@]3(C)CC[C@H]1C2(C)C`: the IC50 in the test with L02 is 1.3 µM; with ECa-109 cell line it was 1.98 µM; in the test with SGC-7901, 2.24 µM; with HepG2 it was 3.03 µM; in the test with HeLa, 2.71 µM.

On to `CCCCn1n[n+](C)c2c1C(C)(C)[C@@H]1CC[C@]3(C)[C@H](CC[C@@H]4[C@H]5[C@H]6OC[C@@]5(CCC6(C)C)CC[C@]43C)[C@@]1(C)C2`, for which the IC50 with L02 is 2.2 µM; in the test with ECa-109 cell line it was 5.14 µM; with SGC-7901, 3.25 µM; in the test on HepG2, 3.97 µM; in the test with HeLa, 3.99 µM.
